The text below walks through data of patent publication US20230063457A1, “DNA-PK INHIBITING COMPOUNDS” (Provincial Health Services Authority, priority 2019, published 2023).

One test deals with T1, Phospho-DNA-PK in FaDu Cells (Homo sapiens, UniProt P78527).
T1 construct: host or cells: FaDu
Nature of the test: Effect of compounds on phospho-DNA-PK in FaDu cells (MesoScale sandwich immunoassay). It counts as cell-based. Conditions: 1 hour pre-incubation, 1 μg/ml Neocarzinostatin 2 hours, averaged values, read-out: MSD FaDu IC50. How it is done: Effect of Compounds on Phospho-DNA-PK in FaDu Cells
All compounds tested were dissolved in DMSO and further dilutions were made in culture medium. Final DMSO concentration was 0.3% (v/v). The human FaDu cells (ATCC) were cultured in MEM medium supplemented with Glutamax and 10% fetal calf serum (PAA). Cells were routinely maintained at densities of 0.2×10^6 cells per ml at 37° C. in a humidified 5% CO2, 95% air atmosphere. Cells were passaged twice a week, splitting back to obtain the low density. Cells were seeded in 96 well plates (Corning 3904) at 1×10^6 cells per ml media in a volume of 50 μl per well. Seeded cells were incubated at 37° C. in a humidified 5% CO2, 95% air atmosphere for 24 hours. Compounds were added (25 μl) to the cells and pre-incubated for 1 hour. 1 μg/ml DNA-damaging agent Neocarzinostatin (NCS) was added (25 μl) to a final volume of 100 μl and incubated for 2 hours at 37° C. in a humidified 5% CO2, 95% air atmosphere. After this period of time plates were removed from the incubator and the 100 μl dilutions were removed from the wells gently, prior to the addition of 75 μl cold RIPA lysis buffer with protease and phosphatase inhibitors to achieve the cells lysis, followed by shaking on a plate shaker at 4° C. for 30 minutes. At the end of this incubation, lysate was assessed for phospho-DNA-PK levels by sandwich immune-assay carried out in anti-mouse antibody coated MesoScale plates. […] Signal obtained in the wells containing blank samples was subtracted from all other wells and IC50 values were determined by fitting a sigmoidal curve to % inhibition of control versus Logo compound concentration.
As for `c1cnc(N2CC(COc3nc(N4CCOCC4)cc4ncccc34)C2)nc1` [Example 128], the half-inhibitory concentration (IC50) (usually the concentration that inhibits the measured activity by half) is 1390 nM.

As to `Cc1cc(C(N)=O)nc(NCC2CCN(c3nc(N4CCOCC4)cc4ncccc34)CC2)n1` [Example 101], the IC50 was found to be 2130 nM.

Turning to `O=C1NCC(CNc2nc(N3CCOCC3)cc3ncccc23)CO1` (stereo not shown) [Parent compound 97], the IC50 was 3330 nM.

Regarding `CCOC(=O)c1cnc(NCC2CCN(c3nc(N4CCOCC4)cc4ncccc34)CC2)nc1` [Example 112], the half-inhibitory concentration (IC50) was found to be 2030 nM.

Regarding `c1cnc(NC2CCN(c3nc(N4CCOCC4)cc4ncccc34)CC2)nc1` [Example 16], the IC50 amounted to 18600 nM.

On to `Oc1cnc2cc(N3CCOCC3)nc(O[C@H]3CC[C@@H](c4cccs4)CC3)c2c1` [Example 164], for which the IC50 came to 3740 nM.

Consider `[2H]C1([2H])OC([2H])([2H])C([2H])([2H])N(c2cc3ncccc3c(O[C@H]3CC[C@@H](c4nc[nH]n4)CC3)n2)C1([2H])[2H]` [Example 65], for which the IC50 came to 210 nM.

`Oc1cnc2cc(N3CCOCC3)nc(O[C@H]3CC[C@@H](c4cscn4)CC3)c2c1` [Example 167]: the IC50 turned out to be 219 nM.

`COc1cnc2cc(N3CCOCC3)nc(O[C@H]3CC[C@@H](n4cc(F)cn4)CC3)c2c1` [Parent compound 170]: the half-inhibitory concentration (IC50) was 232 nM.

As for `c1cnc(NCc2cnn(-c3nc(N4CCOCC4)cc4ncccc34)c2)nc1` [Example 24], the IC50 came out at 9350 nM.

As to `c1cnc2cc(N3CCOCC3)nc(O[C@H]3CC[C@@H](n4ccnc4)CC3)c2c1` [Example 77], the 50% inhibitory concentration (IC50) was 104 nM.

On to `c1cnc(N2CCC3CN(c4nc(N5CCOCC5)cc5ncccc45)CC32)nc1` (stereo not shown) [Example 17], for which the 50% inhibitory concentration (IC50) was 4450 nM.

Turning to `c1cnc2cc(N3CCOCC3)nc(OCC3CN(c4ncn[nH]4)C3)c2c1` [Parent compound 151], the IC50 was 1690 nM.

Regarding `CS(=O)(=O)[C@H]1CC[C@@H](Oc2nc(N3CCOCC3)cc3ncccc23)CC1` [Example 82], the IC50 is 1890 nM.

For `N#Cc1ccnc(NCC2CCN(c3nc(N4CCOCC4)cc4ncccc34)CC2)n1` [Example 108], the 50% inhibitory concentration (IC50) turned out to be 3380 nM.

For `c1cnc(N2CCC3(CCN(c4nc(N5CCOCC5)cc5ncccc45)C3)C2)nc1` (stereo not shown) [Example 22], the concentration for half-maximal inhibition (IC50) worked out at 1550 nM.

Take `NC(=O)c1ccnc(NCC2CCN(c3nc(N4CCOCC4)cc4ncccc34)CC2)n1` [Example 99]: the IC50 is 724 nM.

For the compound `Fc1cnn([C@H]2CC[C@@H](Oc3nc(N4CCOCC4)cc4ncccc34)CC2)c1` [Example 78], the half-inhibitory concentration (IC50) worked out at 195 nM.

As to `Brc1cnc2cc(N3CCOCC3)nc(O[C@H]3CC[C@@H](n4ccnc4)CC3)c2c1` [Example 54], the IC50 stood at 182 nM.

Regarding `N#Cc1cccnc1NCC1CCN(c2nc(N3CCOCC3)cc3ncccc23)CC1` [Example 115], the IC50 was found to be 7990 nM.

In the case of `CC(C)(C)OC(=O)N1CCN(c2nc(N3CCOCC3)cc3ncccc23)CC1` [Example 19], the concentration for half-maximal inhibition (IC50) is 6560 nM.

For `N#Cc1cccc(-c2ccnc(NCC3CCN(c4nc(N5CCOCC5)cc5ncccc45)CC3)n2)n1` [Example 119], the IC50 was 2410 nM.

Take `Cc1cnc(NCC2CCN(c3nc(N4CCOCC4)cc4ncccc34)CC2)nc1` [Example 102]: the IC50 was determined as 905 nM.

A further test has as its target DNA-PK kinase (Homo sapiens, UniProt P78527). Put plainly: Inhibition of DNA-PK kinase activity (ADP-Glo). It counts as biochemical. The settings on record: averaged values over all measurements on all batches; 150 μM ATP, 1 hour at 25° C. As for the experimental part:
Inhibition of DNA-PK Kinase Activity Assay buffer was 50 mM Hepes pH 7.5 containing 0.1 mg/ml BSA (albumin from bovine serum), 50 μM DTT (dithiothreitol), 20 mM MgCl2 and 10 μg/ml calf thymus DNA (activation buffer). Kinase reaction was carried out in OptiPlate 384 plates (PerkinElmer 6007299). All compounds tested were dissolved in dimethyl sulfoxide (DMSO) and further dilutions were made in assay buffer. Final DMSO concentration was 1% (v/v). Pre-incubation consisted of compound (1% DMSO in control and blank wells) and 24 ng/well DNA-PK kinase to allow the compounds to bind the enzyme (with buffer in the blank wells) for 15 minutes; after this time 150 μM Adenosine-5′-triphosphate (ATP) and 0.2 μg/μl DNA-PK substrate were added to commence the kinase reaction. Incubations were carried out for 1 hour at 25° C. Kinase activity was determined by using ADP-Glo™ reagent from Promega according to the manufacturer's instructions. The light generated was measured using a luminometer (EnVision, PerkinElmer). Signal obtained in the wells containing blank samples was subtracted from all other wells and IC50 values were determined by fitting a sigmoidal curve to % inhibition of control versus Log10 compound concentration.
Consider `c1cnc(N2CC(COc3nc(N4CCOCC4)cc4ncccc34)C2)nc1` [Example 128], for which the concentration for half-maximal inhibition (IC50) is 30 nM.

Turning to `Cc1cc(C(N)=O)nc(NCC2CCN(c3nc(N4CCOCC4)cc4ncccc34)CC2)n1` [Example 101], the concentration for half-maximal inhibition (IC50) stood at 32 nM.

Compound `O=C1NCC(CNc2nc(N3CCOCC3)cc3ncccc23)CO1` (stereo not shown) [Parent compound 97] returned an IC50 of 27 nM.

Turning to `CCOC(=O)c1cnc(NCC2CCN(c3nc(N4CCOCC4)cc4ncccc34)CC2)nc1` [Example 112], the IC50 amounted to 112 nM.

As for `c1cnc(NC2CCN(c3nc(N4CCOCC4)cc4ncccc34)CC2)nc1` [Example 16], inhibition was half-maximal at 139 nM (IC50).

In turn, `Oc1cnc2cc(N3CCOCC3)nc(O[C@H]3CC[C@@H](c4cccs4)CC3)c2c1` [Example 164] had an IC50 of 58 nM.

On to `[2H]C1([2H])OC([2H])([2H])C([2H])([2H])N(c2cc3ncccc3c(O[C@H]3CC[C@@H](c4nc[nH]n4)CC3)n2)C1([2H])[2H]` [Example 65], for which inhibition was half-maximal at 2 nM (IC50).

`Oc1cnc2cc(N3CCOCC3)nc(O[C@H]3CC[C@@H](c4cscn4)CC3)c2c1` [Example 167] showed an IC50 of 4 nM.

`COc1cnc2cc(N3CCOCC3)nc(O[C@H]3CC[C@@H](n4cc(F)cn4)CC3)c2c1` [Parent compound 170] gave an IC50 of 8 nM.

`c1cnc(NCc2cnn(-c3nc(N4CCOCC4)cc4ncccc34)c2)nc1` [Example 24]: half-maximal inhibition (IC50) required 213 nM.

In the case of `c1cnc2cc(N3CCOCC3)nc(O[C@H]3CC[C@@H](n4ccnc4)CC3)c2c1` [Example 77], the IC50 stood at 6 nM.

Regarding `c1cnc(N2CCC3CN(c4nc(N5CCOCC5)cc5ncccc45)CC32)nc1` (stereo not shown) [Example 17], the 50% inhibitory concentration (IC50) was determined as 148 nM.

In turn, `c1cnc2cc(N3CCOCC3)nc(OCC3CN(c4ncn[nH]4)C3)c2c1` [Parent compound 151] showed a half-maximal inhibitory concentration (IC50) of 82 nM.

`CS(=O)(=O)[C@H]1CC[C@@H](Oc2nc(N3CCOCC3)cc3ncccc23)CC1` [Example 82] returned a half-maximal inhibitory concentration (IC50) of 141 nM.

Consider `N#Cc1ccnc(NCC2CCN(c3nc(N4CCOCC4)cc4ncccc34)CC2)n1` [Example 108], for which the IC50 is 69 nM.

Consider `c1cnc(N2CCC3(CCN(c4nc(N5CCOCC5)cc5ncccc45)C3)C2)nc1` (stereo not shown) [Example 22], for which half-maximal inhibition (IC50) was put at 198 nM.

As to `NC(=O)c1ccnc(NCC2CCN(c3nc(N4CCOCC4)cc4ncccc34)CC2)n1` [Example 99], the IC50 worked out at 15 nM.

Turning to `Fc1cnn([C@H]2CC[C@@H](Oc3nc(N4CCOCC4)cc4ncccc34)CC2)c1` [Example 78], half-maximal inhibition (IC50) was put at 4 nM.

In the case of `Brc1cnc2cc(N3CCOCC3)nc(O[C@H]3CC[C@@H](n4ccnc4)CC3)c2c1` [Example 54], the IC50 is 3 nM.

As for `N#Cc1cccnc1NCC1CCN(c2nc(N3CCOCC3)cc3ncccc23)CC1` [Example 115], the IC50 stood at 120 nM.

In the case of `CC(C)(C)OC(=O)N1CCN(c2nc(N3CCOCC3)cc3ncccc23)CC1` [Example 19], inhibition was half-maximal at 159 nM (IC50).

As for `N#Cc1cccc(-c2ccnc(NCC3CCN(c4nc(N5CCOCC5)cc5ncccc45)CC3)n2)n1` [Example 119], the IC50 was found to be 136 nM.

In the case of `Cc1cnc(NCC2CCN(c3nc(N4CCOCC4)cc4ncccc34)CC2)nc1` [Example 102], half-maximal inhibition (IC50) required 39 nM.
